Values joined by “and” are separate entries in the source; they are usually repeats but may differ in a detail not shown here. Equal values may be shown once.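 The compound was tested at five concentrations on cells cultured in 96-well plates, with a 48-hour exposure period. GI50 is the concentration that inhibits growth by half. The concentration for full growth arrest is given as TGI.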
What was measured:
Test in all cases: growth of human tumour cells (NCI), 48 h
EKVX NSCLC = system: EKVX NSCLC
RPMI-8226 leukemia = system: RPMI-8226 leukemia
BT-549 breast = system: BT-549 breast
HL-60(TB) leukemia = system: HL-60(TB) leukemia
SW-620 colon = system: SW-620 colon
UACC-257 melanoma = system: UACC-257 melanoma
SF-268 CNS = system: SF-268 CNS
NCI-H522 lung = system: NCI-H522 lung
786-0 renal = system: 786-0 renal
ACHN renal = system: ACHN renal

Compound: c1cc(OCCN2CCCCC2)ccc1CNc1ccc2nc(CCC3CCCCC3)[nH]c2c1
- GI50 (EKVX NSCLC): 1990 nM
- TGI (EKVX NSCLC): 6.19 µM
- GI50 (RPMI-8226 leukemia): 1490 nM
- TGI (RPMI-8226 leukemia): 3.71 µM
- GI50 (BT-549 breast): 1710 nM
- TGI (BT-549 breast): 3.87 µM
- GI50 (HL-60(TB) leukemia): 1790 nM
- TGI (HL-60(TB) leukemia): 3780 nM
- GI50 (SW-620 colon): 1820 nM
- TGI (SW-620 colon): 3.84 µM
- GI50 (UACC-257 melanoma): 1.91 µM
- TGI (UACC-257 melanoma): 3.89 µM
- GI50 (SF-268 CNS): 2080 nM
- TGI (SF-268 CNS): 5.43 µM
- GI50 (NCI-H522 lung): 1980 nM
- TGI (NCI-H522 lung): 3.94 µM
- GI50 (786-0 renal): 1650 nM
- TGI (786-0 renal): 3.55 µM
- GI50 (ACHN renal): 2200 nM
- TGI (ACHN renal): 5.4 µM

Compound: COc1ccc(CNc2c3ccccc3nc3ccc(OC)cc23)cc1
- GI50 (EKVX NSCLC): 3150 nM
- TGI (EKVX NSCLC): 12.2 µM
- GI50 (BT-549 breast): 4250 nM
- TGI (BT-549 breast): 15.8 µM
- GI50 (HL-60(TB) leukemia): 2150 nM
- TGI (HL-60(TB) leukemia): 4730 nM
- GI50 (SW-620 colon): 2080 nM
- TGI (SW-620 colon): 7.22 µM
- GI50 (UACC-257 melanoma): 2.15 µM
- TGI (UACC-257 melanoma): 4.81 µM
- GI50 (SF-268 CNS): 3750 nM
- TGI (SF-268 CNS): 15.2 µM
- GI50 (NCI-H522 lung): 3170 nM
- TGI (NCI-H522 lung): 14.3 µM
- GI50 (786-0 renal): 2020 nM
- TGI (786-0 renal): 4.55 µM
- GI50 (ACHN renal): 2720 nM
- TGI (ACHN renal): 10.1 µM

Compound: Cc1ccc(-c2nc(N)nc3c2nnn3Cc2cccc(CO[C@H]3CCOC3)n2)o1
- GI50 (EKVX NSCLC): > 100000 nM
- TGI (EKVX NSCLC): > 100 µM
- GI50 (RPMI-8226 leukemia): > 100000 nM
- TGI (RPMI-8226 leukemia): > 100 µM
- GI50 (BT-549 breast): 82000 nM
- TGI (BT-549 breast): > 100 µM
- GI50 (HL-60(TB) leukemia): > 100000 nM
- TGI (HL-60(TB) leukemia): > 100000 nM
- GI50 (SW-620 colon): > 100000 nM
- TGI (SW-620 colon): > 100 µM
- GI50 (UACC-257 melanoma): > 100 µM
- TGI (UACC-257 melanoma): > 100 µM
- GI50 (SF-268 CNS): > 100000 nM
- TGI (SF-268 CNS): > 100 µM
- GI50 (NCI-H522 lung): > 100000 nM
- TGI (NCI-H522 lung): > 100 µM
- GI50 (786-0 renal): > 100000 nM
- TGI (786-0 renal): > 100 µM
- GI50 (ACHN renal): > 100000 nM
- TGI (ACHN renal): > 100 µM

Compound: O=S(=O)(c1ccc(N=C2NN=C(c3c[nH]c4ccccc34)CS2)cc1)N1CCOCC1
- GI50 (EKVX NSCLC): 5760 nM
- TGI (EKVX NSCLC): > 100 µM
- GI50 (RPMI-8226 leukemia): 3720 nM
- TGI (RPMI-8226 leukemia): 76.9 µM
- GI50 (BT-549 breast): 2860 nM
- TGI (BT-549 breast): 11.3 µM
- GI50 (HL-60(TB) leukemia): 2250 nM
- TGI (HL-60(TB) leukemia): > 100000 nM
- GI50 (SW-620 colon): 77200 nM
- TGI (SW-620 colon): > 100 µM
- GI50 (UACC-257 melanoma): 9.54 µM
- TGI (UACC-257 melanoma): > 100 µM
- GI50 (SF-268 CNS): 73700 nM
- TGI (SF-268 CNS): > 100 µM
- GI50 (NCI-H522 lung): > 100000 nM
- TGI (NCI-H522 lung): > 100 µM
- GI50 (786-0 renal): 2550 nM
- TGI (786-0 renal): 42.3 µM
- GI50 (ACHN renal): 88600 nM
- TGI (ACHN renal): > 100 µM

Compound: C=CCC(C(=O)O)c1ccccc1 (centres undefined)
- TGI (EKVX NSCLC): > 100 µM
- TGI (RPMI-8226 leukemia): > 100 µM
- TGI (BT-549 breast): > 100 µM
- TGI (HL-60(TB) leukemia): > 100000 nM
- TGI (SW-620 colon): > 100 µM
- TGI (UACC-257 melanoma): > 100 µM
- TGI (SF-268 CNS): > 100 µM
- TGI (NCI-H522 lung): > 100 µM
- TGI (786-0 renal): > 100 µM
- TGI (ACHN renal): > 100 µM

Compound: Cn1nc(-c2ccccc2)nc1[N+](=O)[O-]
- TGI (EKVX NSCLC): > 10 µM
- TGI (RPMI-8226 leukemia): > 10 µM
- TGI (BT-549 breast): > 10 µM
- TGI (HL-60(TB) leukemia): > 10000 nM
- TGI (SW-620 colon): > 10 µM
- TGI (UACC-257 melanoma): > 10 µM
- TGI (SF-268 CNS): > 10 µM
- TGI (NCI-H522 lung): > 10 µM
- TGI (786-0 renal): > 10 µM
- TGI (ACHN renal): > 10 µM

Compound: COc1cc2cc(C(=O)Nc3cc(N)c4ccccc4c3CCCl)[nH]c2c(OC)c1OC
- GI50 (EKVX NSCLC): 99.3 nM
- TGI (EKVX NSCLC): 0.517 µM
- GI50 (RPMI-8226 leukemia): < 21 nM
- TGI (RPMI-8226 leukemia): 0.189 µM
- GI50 (BT-549 breast): 121 nM
- TGI (BT-549 breast): 0.804 µM
- GI50 (HL-60(TB) leukemia): 36.1 nM
- TGI (HL-60(TB) leukemia): 237 nM
- GI50 (SW-620 colon): 16 nM
- TGI (SW-620 colon): > 18.3 µM
- GI50 (SF-268 CNS): 17 nM
- TGI (SF-268 CNS): 6.87 µM
- GI50 (NCI-H522 lung): 15.3 nM
- TGI (NCI-H522 lung): 0.271 µM
- GI50 (786-0 renal): < 5 nM
- TGI (786-0 renal): 1.09 µM
- GI50 (ACHN renal): 18.4 nM
- TGI (ACHN renal): 0.13 µM

Compound: C[C@@H]1N=C(c2ccc(Br)cc2)Nc2nc3ccccn3c2C1=O
- GI50 (RPMI-8226 leukemia): 7310 nM
- TGI (RPMI-8226 leukemia): > 100 µM
- GI50 (BT-549 breast): 5490 nM
- TGI (BT-549 breast): > 100 µM
- GI50 (HL-60(TB) leukemia): 6490 nM
- TGI (HL-60(TB) leukemia): > 100000 nM
- GI50 (SW-620 colon): 3750 nM
- TGI (SW-620 colon): > 100 µM
- GI50 (UACC-257 melanoma): 35.2 µM
- TGI (UACC-257 melanoma): > 100 µM
- GI50 (SF-268 CNS): 17200 nM
- TGI (SF-268 CNS): > 100 µM
- GI50 (NCI-H522 lung): 3240 nM
- TGI (NCI-H522 lung): 18.4 µM
- GI50 (786-0 renal): 23800 nM
- TGI (786-0 renal): > 100 µM
- GI50 (ACHN renal): 6750 nM
- TGI (ACHN renal): > 100 µM

Compound: Nc1cc(-c2cccc(OC(F)(F)F)c2)nc2ccc(N3CCCC3)cc12
- GI50 (EKVX NSCLC): 222 nM and 362 nM and 380 nM
- TGI (EKVX NSCLC): > 100 µM
- GI50 (RPMI-8226 leukemia): 47.9 nM and 40.4 nM and 44.7 nM
- TGI (RPMI-8226 leukemia): 7.32 µM and > 33.2 µM and > 64.9 µM
- GI50 (BT-549 breast): 208 nM and 182 nM and 100 nM
- TGI (BT-549 breast): > 100 µM
- GI50 (HL-60(TB) leukemia): 30.3 nM and 24.9 nM and 24.8 nM
- TGI (HL-60(TB) leukemia): 88.8 nM and 71.2 nM and 320 nM
- GI50 (SW-620 colon): 43.5 nM and 41.3 nM and 36.6 nM
- TGI (SW-620 colon): 22.1 µM and > 100 µM
- GI50 (SF-268 CNS): 81.9 nM and 83.7 nM and 78.4 nM
- TGI (SF-268 CNS): 22 µM and > 100 µM
- GI50 (NCI-H522 lung): 39.4 nM and 35.1 nM and 29.7 nM
- TGI (NCI-H522 lung): 0.986 µM
- GI50 (786-0 renal): 65.6 nM and 78 nM and 57.3 nM
- TGI (786-0 renal): 12.3 µM and > 100 µM and > 47.8 µM
- GI50 (ACHN renal): 90.3 nM and 101 nM and 107 nM
- TGI (ACHN renal): 26 µM and > 100 µM

Compound: COc1ccc2c(c1)OC1=C(C(=O)OC1)C2c1cc(OC)c(OC)c(OC)c1 (centres undefined)
- TGI (EKVX NSCLC): > 100 µM
- GI50 (RPMI-8226 leukemia): 514 nM
- TGI (RPMI-8226 leukemia): > 100 µM
- GI50 (BT-549 breast): 1290 nM
- TGI (BT-549 breast): > 100 µM
- GI50 (HL-60(TB) leukemia): 256 nM
- TGI (HL-60(TB) leukemia): 673 nM
- GI50 (SW-620 colon): 334 nM
- TGI (SW-620 colon): > 100 µM
- GI50 (SF-268 CNS): 1910 nM
- TGI (SF-268 CNS): > 100 µM
- GI50 (NCI-H522 lung): 273 nM
- TGI (NCI-H522 lung): 2.02 µM
- GI50 (786-0 renal): 632 nM
- TGI (786-0 renal): > 100 µM
- GI50 (ACHN renal): 1270 nM
- TGI (ACHN renal): > 100 µM

— PubChem BioAssay (NCI)
